The source of these data is patent US8212016B2, “NPC1L1 orthologues” (Schering Corporation, priority 2006, dated 2012).

pKi: −log10 of the molar value. Where two headings read alike, the source gives them in different places.

In general, pKi refers to the Ki on a negative log10 scale, so that one unit is a factor of ten. What is called ED50 is the dose at which the effect has come halfway, by size or by number of responders.

One series concerns the target monkey NPC1L1 (Macaca mulatta, UniProt A0MJA5). Kind of series: Fluorescence NPC1L1 binding assay, HEK-293 cells, BODIPY-labeled compound 1. Also noted: species or system rhesus monkey. The protocol: (§1) Cell Culture and Membrane Preparation. Each plasmid pCR3.1 harboring NPC1L1 was prepared using standard molecular biology protocols. Stable cell lines expressing human, rhesus monkey, mouse, rat, hamster, canine or rabbit NPC1L1 were generated using Lipofectamine 2000 transfection reagent in HEK-293 cells according to the manufacturer's protocol. Cells were maintained in DMEM supplemented with 10% FBS, 100 U/ml pen/strep, and 500 μg/ml geneticin at 37° C., 5% CO2. All cell culture reagents were obtained from Invitrogen Life Technologies, (Carlsbad, Calif.). Cell membranes were prepared by lysing cells in 5 mM HEPES with protease inhibitors (Complete™ Protease Inhibitor Cocktail Tablets; Roche Diagnostics Corp., Indianapolis Ind.) for 15 min at 4° C. A membrane pellet was obtained by centrifuging the cell lysates at 12,000×g for 25 min. The membranes were resuspended in 5 mM HEPES with protease inhibitors and triturated with a 21G needle.
(§2) Fluorescence. Cells were plated into 384-well black/clear plates (BD Biosciences, Bedford Mass.) for binding experiments the following day. The media was aspirated. […] Media (20 μl) containing the indicated concentration of compound was then added to the wells. […] The binding reaction was allowed to proceed for 4 hours at 37° C. Subsequently the media was aspirated and the cells washed once with PBS.

The target of the next series is canine NPC1L1 (Canis lupus familiaris, UniProt A0MJA4). The description is as above. The protocol:
as §1, §2

Another series deals with hamster NPC1L1 (Mesocricetus auratus, UniProt A0MJA8). The series is described as above. The method, then: as §1, §2
In the next series the target is T1, human NPC1L1 (Homo sapiens, UniProt Q9UHC9, T1073A).
T1 construct: expressed in transfected cells
T1 sequence (Q9UHC9 22-1332 isoform Q9UHC9-2 T1046A): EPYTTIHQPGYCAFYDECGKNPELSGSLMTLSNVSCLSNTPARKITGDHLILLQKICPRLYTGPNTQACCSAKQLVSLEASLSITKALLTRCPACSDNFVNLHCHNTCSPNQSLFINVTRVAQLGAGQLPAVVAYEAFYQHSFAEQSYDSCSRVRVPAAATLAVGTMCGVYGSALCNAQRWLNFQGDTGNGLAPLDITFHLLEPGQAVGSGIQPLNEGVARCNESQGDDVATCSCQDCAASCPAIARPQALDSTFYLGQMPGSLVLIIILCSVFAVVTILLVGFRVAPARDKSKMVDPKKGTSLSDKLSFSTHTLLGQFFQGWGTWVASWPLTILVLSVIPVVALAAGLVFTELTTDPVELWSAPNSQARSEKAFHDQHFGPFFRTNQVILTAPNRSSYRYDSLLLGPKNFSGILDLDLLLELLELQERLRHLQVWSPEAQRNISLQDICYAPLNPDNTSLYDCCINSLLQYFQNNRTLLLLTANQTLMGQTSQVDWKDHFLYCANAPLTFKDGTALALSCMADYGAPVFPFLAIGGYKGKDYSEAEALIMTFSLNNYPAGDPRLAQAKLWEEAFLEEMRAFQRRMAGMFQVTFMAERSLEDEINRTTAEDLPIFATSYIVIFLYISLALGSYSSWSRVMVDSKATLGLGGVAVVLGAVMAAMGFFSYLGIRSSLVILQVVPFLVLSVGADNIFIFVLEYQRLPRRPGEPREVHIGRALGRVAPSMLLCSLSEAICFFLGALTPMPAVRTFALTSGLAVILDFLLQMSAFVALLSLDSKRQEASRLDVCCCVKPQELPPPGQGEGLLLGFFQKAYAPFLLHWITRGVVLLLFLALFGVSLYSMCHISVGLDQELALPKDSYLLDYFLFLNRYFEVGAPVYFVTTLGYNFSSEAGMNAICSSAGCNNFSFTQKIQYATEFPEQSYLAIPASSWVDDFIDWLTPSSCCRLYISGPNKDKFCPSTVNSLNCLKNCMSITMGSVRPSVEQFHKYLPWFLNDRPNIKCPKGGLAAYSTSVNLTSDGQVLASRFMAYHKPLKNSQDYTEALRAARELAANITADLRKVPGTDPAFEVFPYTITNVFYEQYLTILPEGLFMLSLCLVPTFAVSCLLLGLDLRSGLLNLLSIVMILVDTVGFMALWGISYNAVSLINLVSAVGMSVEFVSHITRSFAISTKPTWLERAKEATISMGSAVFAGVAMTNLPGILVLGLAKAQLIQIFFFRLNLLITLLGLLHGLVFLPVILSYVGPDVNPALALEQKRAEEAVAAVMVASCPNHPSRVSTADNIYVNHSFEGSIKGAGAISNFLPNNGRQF
The description is as above. The protocol: as §1, §2

The next series has as its target rabbit NPC1L1 (Oryctolagus cuniculus, UniProt A0MJA7). The description is as above. The method, then: as §1, §2
Another series deals with T2, rat NPC1L1 (Rattus norvegicus, UniProt Q6T3U3, A349V/E317P/G318E/K324N/L297S).
T2 construct: expressed in transfected cells
Described as above. The method, then: as §1, §2

The target of a further series is T3, mouse NPC1L1 (Mus musculus, UniProt Q6T3U4, N476K).
T3 construct: expressed in transfected cells
The experiment in a line: Fluorescence NPC1L1 binding assay, HEK-293 cells, fluorescent compound 2 as ligand. The protocol: as §1, §2
In an effort to show binding to mouse NPC1L1, several related ezetimibe analogs were examined as possible alternatives to fluorescently-labeled (BODIPY) ezetimibe glucuronide (compound 1) in the binding assay. Compound 2, which is a fluorescently labeled synthetic precursor for fluorescently-labeled (BODIPY) ezetimibe glucuronide (compound 1; Burnett et al., Bioorganic and Medicinal Chemistry Letters 12:315-318 (2002)), was identified as a viable option for detection of mouse NPC1L1 binding. Compound 2 contains a methyl ester substitution for the carboxylic acid on the glucuronide portion of the molecule (compound structures shown in FIG. 4A).

Series [1] deals with cholesterol absorption. Kind of series: In vivo potency of ezetimibe (ED50). Conditions: Primates, Monkey.
Series [2] deals with cholesterol absorption. The experiment in a line: In vivo potency of ezetimibe (ED50). To be noted: Mesocricetus auratus, Hamster.
For series [3], the system named is cholesterol absorption. The experiment in a line: In vivo potency of ezetimibe (ED50). To be noted: Canis lupus familiaris, Canine.
Series [4] relates to cholesterol absorption. Kind of series: In vivo potency of ezetimibe (ED50). To be noted: Rat.
Series [5] concerns cholesterol absorption. The experiment in a line: In vivo potency of ezetimibe (ED50). To be noted: Mouse.
Series [6] relates to ^14C-cholesterol absorption. Kind of series: Acute cholesterol absorption assay. To be noted: intraduodenal. It counts as in vivo. The method, then:
Acute cholesterol absorption assay. ^14C-cholesterol absorption was determined acutely in rats using conditions previously described (Van Heek et al., J. Pharmacol. Exp. Ther. 283: 157-163 (1997)). Compounds were dissolved in rat bile and delivered (1.0 ml) intraduodenally by bolus injection via an intestinal catheter, followed by 1.0 ml saline rinse (0.9%). Following a 30 min incubation, a cholesterol emulsion containing 3 mg cholesterol and 2 μCi ^14C-cholesterol (3 ml) was delivered to each rat as a bolus via intestinal catheter, followed by 1 ml saline rinse. Animals were sacrificed 90 min later and ^14C-cholesterol levels in plasma, liver, intestinal contents, and intestinal wall were determined.

The test system of series [7] is plasma and liver cholesterol. Kind of series: Percent cholesterol lowering in plasma and liver. Conditions: hamster. It counts as in vivo.
For series [8] the following is noted: following oral administration; cited from earlier work.
For series [9] the following is noted: intraduodenal delivery, first pass metabolism in the intestine; cited from earlier work.
Series [10] relates to NPC1L1 orthologs of multiple species. Kind of series: Binding to NPC1L1 orthologs of multiple species. Conditions: NPC1L1 orthologs of the species tested. The method, then: as §1, §2
For the next series, the system named is cholesterol. Kind of series: In vivo cholesterol lowering activity.

For `O=C1[C@H](CC[C@H](O)c2ccc(F)cc2)[C@@H](c2ccc(O)cc2)N1c1ccc(F)cc1` [compound 3, ezetimibe], the pKi is 6.05 at monkey NPC1L1 (Monkey NPC1L1, competition with compound 1, read-out: Ki); 6.11 at canine NPC1L1 (Canine NPC1L1, competition with compound 1, read-out: Ki); 6.11 on canine NPC1L1 (Table 3, Dog, read-out: Ki Dog NPC1L1); 5.82 on hamster NPC1L1 (Hamster NPC1L1, competition with compound 1, read-out: Ki); 5.82 on hamster NPC1L1 (Table 3, Hamster, read-out: Ki Hamster NPC1L1); 5.65 at human NPC1L1 (Human NPC1L1, competition with compound 1, read-out: Ki). For the same compound, the pKi was 5.67 at rabbit NPC1L1 (Rabbit NPC1L1, competition with compound 1, read-out: Ki); 5.68 on rabbit NPC1L1 (Table 3, Rabbit, read-out: Ki Rabbit NPC1L1); 6.01 at rat NPC1L1 (Rat NPC1L1, competition with compound 1, read-out: Ki); 5.27 on mouse NPC1L1 (Mouse NPC1L1, competition with compound 2, read-out: Ki); 5.05 at mouse NPC1L1 (Table 3, Mouse, read-out: Ki Mouse NPC1L1). Moreover, the ED50 turned out to be 0.0005 mg/kg with cholesterol absorption [1]; 0.04 mg/kg with cholesterol absorption [2]; 0.007 mg/kg in the series with cholesterol absorption [3]; 0.03 mg/kg in the series on cholesterol absorption [4]; 0.7 mg/kg in the series with cholesterol absorption [5]; 0.0016 mg/kg in [6] (rat, read-out: rat ED50, inhibition of cholesterol absorption). Also, in series [7], the “cholesterol lowering Liver” value turned out to be 96%. The “cholesterol lowering Plasma” value in series [7] is 26%. Further, the “fraction of ezetimibe glucuronidated” value in [8] was 90%. Also, in [9], the “fraction of compound in portal plasma that is the glucuronide compound 4” value is reported as over 95%.

On to `COc1ccc(N2C(=O)[C@H](CCCc3ccccc3)[C@H]2c2ccc(F)cc2)cc1` [compound 9], for which the “Ki Monkey NPC1L1” value at monkey NPC1L1 (Table 3, Monkey) is recorded as “In- active”. The “Ki Dog NPC1L1” value on canine NPC1L1 (Table 3, Dog) is “In- active”. The “Ki Hamster NPC1L1” value at hamster NPC1L1 (Table 3, Hamster) was “In- active”. Also, at human NPC1L1 (Table 3, Human), the “Ki Human NPC1L1” value is “In- active”. Moreover, at rabbit NPC1L1 (Table 3, Rabbit), the “Ki Rabbit NPC1L1” value is “In- active”. At rat NPC1L1 (Table 3, Rat), the “Ki Rat NPC1L1” value is “In- active”. Further, the “Ki Mouse NPC1L1” value on mouse NPC1L1 (Table 3, Mouse) is recorded as “In- active”. Moreover, the “rat ED50, inhibition of cholesterol absorption” value in series [6] is “In- active”. Besides, in [7], the “cholesterol lowering Liver” value is listed as “In- active” and the “cholesterol lowering Plasma” value is “In- active”. In addition, the NPC1L1 binding activity entry in series [10] is “total loss”. Further, the “in vivo cholesterol lowering activity” value with cholesterol was “no in vivo cholesterol lowering activity”.
